The test can be described thus: Reduction in blood glucose levels after single i.v. dose. Format: in vivo, C57BL/6 mice. To be noted: single i.v. dose equivalent to 1 μg/100 μl. The procedure: C57BL/6 mice were given a single i.v. dose of exendin-4 loaded POCA nanoparticles (equivalent to 2 μg peptide/100 μl), non encapsulated (free) exendin-4 peptide (equivalent to 1 μg/100 μl) or saline as a control. In order to monitor blood glucose levels, 2-3 μl blood samples were taken from the peripheral tail vein of each animal prior to dosing and again at 0.5, 1, 2, 3, 4 and 8 hours post dose. Each sample was analysed using a hand held glucose monitor (BAYER […] BREEZE 2TM).

As for exendin-4 [non encapsulated exendin-4], where the note is “2 hours post dose, FIG. 3”, the “reduction in blood glucose levels from baseline” value is given as ~30%. The “blood glucose levels at 8 hours post dose” value (8 hours post dose) is on record as “returned to baseline”.

The values above are taken from US20150342897A1, “POLYPEPTIDE LOADED POCA NANOPARTICLES FOR ORAL ADMINISTRATION” (Glaxo Group Limited, priority 2012, published 2015).
